# Earlier results as cited in EP0668291A2, “Mammalian augmenter of liver regenerating and variants thereof” (Toyo Boseki Kabushiki Kaisha, priority 1994, dated 1995).
# System: hepatocytes
# Details: earlier work
smiles,measurement,value
"N[C@@H](Cc1cc(I)c(Oc2ccc(O)c(I)c2)c(I)c1)C(=O)O [thyroxin T3, tri-iodothyronine]",hepatotrophic effect,weakly hepatotrophic
